{"source": "paper PMC2289734", "about": "(The Journal of Cell Biology, 1992)", "key": {"[1]": {"test_system": "export of VSV-G protein from the ER", "conditions": "cited from earlier work"}, "[2]": {"test_system": "export of VSV-G protein from the ER", "type": "cell-based", "conditions": "for morphological effect on VSV-G export/transport: 45 min at 32°C"}, "[3]": {"test_system": "ER to Golgi transport of VSV-G protein", "type": "cell-based"}}}
{"molecule": "C=C1[C@@H](O)[C@@H]2O[C@]3(CC[C@H](/C=C/[C@@H](C)[C@@H]4CC(C)=C[C@@]5(O[C@H](C[C@@](C)(O)C(=O)O)CC[C@H]5O)O4)O3)CC[C@H]2O[C@@H]1[C@@H](O)C[C@H](C)[C@H]1O[C@@]2(CCCCO2)CC[C@H]1C", "note": "[OKA, okadaic acid]", "values": [{"measurement": "effect on VSV-G protein exit from the ER", "setting": "[1]", "value": "potently inhibit VSV-G protein exit from the ER"}]}
{"molecule": "AlCl3", "values": [{"measurement": "morphological effect on VSV-G export/transport", "setting": "[2]", "value": "did not inhibit"}, {"measurement": "effect on processing of VSV-G to the endo HR form", "setting": "[3]", "value": "no effect"}]}
{"molecule": "guanosine-5'-O-(3-thiophospbate) [GTPTS]", "values": [{"measurement": "VSV-G containing punctate intermediates that contain rab1B", "setting": "[2]", "value": "< 10", "unit": "%"}, {"measurement": "morphological effect on VSV-G export/transport", "setting": "[2]", "value": "concentrated in numerous small, punctate structures"}]}
{"molecule": "C/C=C(/C)C(=O)O[C@H]1C(C)=C2[C@H]([C@@H]1OC(=O)CCCCCCC)[C@@](C)(OC(C)=O)C[C@H](OC(=O)CCC)[C@@]1(O)[C@H]2OC(=O)[C@@]1(C)O", "note": "[thapsigargan]", "values": [{"measurement": "effect on VSV-G export in vitro", "setting": "[2]", "value": "no effectof the drug"}]}
